Consider 23 molecules from patent publication US20240067617A1 (Albireo AB, priority 2022, published 2024).

One experiment concerns the target T1, hIBAT (Homo sapiens, UniProt Q12908).
T1 construct: expressed in transfected cells; kept under Puromycin selection
T1 sequence (Q12908 1-348): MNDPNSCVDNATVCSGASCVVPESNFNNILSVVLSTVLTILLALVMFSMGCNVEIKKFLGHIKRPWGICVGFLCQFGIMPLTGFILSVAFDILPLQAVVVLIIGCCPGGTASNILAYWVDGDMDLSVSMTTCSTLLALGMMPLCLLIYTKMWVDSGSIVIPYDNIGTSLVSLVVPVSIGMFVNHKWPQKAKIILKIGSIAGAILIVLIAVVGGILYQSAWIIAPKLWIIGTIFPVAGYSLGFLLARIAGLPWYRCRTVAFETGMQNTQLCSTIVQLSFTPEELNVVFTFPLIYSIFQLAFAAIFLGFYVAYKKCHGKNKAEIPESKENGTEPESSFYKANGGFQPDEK
The experiment in a line: IBAT (h/m) assay: 3H-taurocholic acid uptake in human IBAT-overexpressing cells. In kind it is cell-based. Particulars: 0.25 μM 3H-taurocholic acid + 5 μM cold taurocholic acid, 20 minutes at 37° C., highest test concentration 10 μM. The method, then: IBAT (h/m) Assay Protocol
10,000 cells (Human or Mouse IBAT-overexpressing cells) were seeded in 96-wells plate (Corning CLS3809) in 200 μL MEM-alpha medium (Gibco 12571-063) supplemented with 10% FBS (Gibco 10438026) containing Puromycin (Gibco A1113803) (10 μg/mL) and incubated at 37° C. in 5% CO2 for 48 hours. After incubation, media was decanted from the wells and cells were washed two times with 300 μL of basal MEM-alpha medium (FBS-free). After decanting basal MEM-alpha medium each time, plates were tapped against paper towel to ensure maximum removal of residual media. Test inhibitor dilutions (highest test concentration being 10 μM, 3-fold serial dilution, 10 points) prepared in DMSO (Sigma D2650) were added in incubation mix (maintaining 0.2% final DMSO concentration) containing 0.25 μM 3H-taurocholic acid (ARC ART-1368) and 5 μM of cold taurocholic acid (Sigma T4009). 50 μL of incubation mix containing test inhibitors was then added to the wells (in duplicate) and the plates were incubated for 20 minutes in a CO2 incubator at 37° C. After incubation, the reaction was stopped by keeping the plates on ice water mix for 2-3 minutes and then the incubation mix was aspirated completely from the wells. The wells were washed two times with 250 μL of chilled unlabelled 1 mM taurocholic acid dissolved in HEPES (Gibco 15630080)-buffered (10 mM) HBSS (Gibco 14175079) (pH 7.4). The plates were tapped against a paper towel after every wash to ensure maximum removal of blocking buffer.
100 μL of MicroScint-20 (PerkinElmer 6013621) was added to the wells and kept overnight at RT before reading the plates in TopCount NXT™ Microplate Scintillation and Luminescence Counter from PerkinElmer under 3H Test protocol (set at 120 seconds reading time per well).
(§1) Preparation of Test Compound Dilutions
(§2) All test compounds were provided in powder form at RT. 10 mM DMSO stocks of the test compounds were prepared, aliquoted and stored at −20° C. From the 10 mM DMSO stock of the compounds, a 3-fold serial dilution in DMSO was prepared to get a total of 10 dilutions of the test compounds. 0.5 μL of this dilution in DMSO was added to 250 μL of FBS-free basal media containing 3H-taurocholic acid and cold taurocholic acid to prepare the incubation mixture.

In another experiment the target is T2, hLBAT (Homo sapiens, UniProt Q14973).
T2 construct: expressed in transfected cells; kept under Geneticin selection
T2 sequence (Q14973 1-349): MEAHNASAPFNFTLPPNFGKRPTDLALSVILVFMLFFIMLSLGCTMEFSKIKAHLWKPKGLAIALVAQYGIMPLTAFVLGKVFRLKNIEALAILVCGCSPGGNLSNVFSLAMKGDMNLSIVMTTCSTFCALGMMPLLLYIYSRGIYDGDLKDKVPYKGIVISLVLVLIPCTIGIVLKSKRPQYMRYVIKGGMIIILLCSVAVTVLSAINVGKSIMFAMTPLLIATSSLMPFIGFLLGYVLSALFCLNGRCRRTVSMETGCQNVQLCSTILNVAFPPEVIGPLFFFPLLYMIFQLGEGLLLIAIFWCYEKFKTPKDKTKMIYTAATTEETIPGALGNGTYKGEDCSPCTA
Briefly: LBAT (h/m) assay: 3H-taurocholic acid uptake in human LBAT-overexpressing cells. In kind it is cell-based. Particulars: 0.3 μM 3H-taurocholic acid + 7.5 μM cold taurocholic acid, 20 minutes at 37° C. How it is done:
LBAT (h/m) Assay Protocol
20,000 cells (Human or Mouse LBAT-overexpressing cells) were seeded in 96-wells plate (Corning CLS3809) in 100 μL MEM-alpha medium (Gibco 12571-063) supplemented with 10% FBS (Gibco 10438026) containing Geneticin (Gibco 10131-027) (1 mg/mL) and incubated at 37° C. in 5% CO2 for 24 hours. After incubation, media was decanted from the wells and cells were washed two times with 300 μL of basal MEM-alpha medium (FBS-free). After decanting basal MEM-alpha medium each time, plates were tapped against paper towel to ensure maximum removal of residual media. For human LBAT, incubation mix was prepared by adding test inhibitor dilutions (3-fold serial dilution in DMSO (Sigma D2650), 10 points) in MEM-alpha (without FBS) containing 0.3 μM 3H-taurocholic acid (ARC ART-1368) and 7.5 μM cold taurocholic acid (Sigma T4009) (maintaining 0.2% final DMSO concentration). For mouse LBAT, incubation mix was prepared by adding test inhibitor dilutions (3-fold serial dilution in DMSO, 10 points) in MEM-alpha (without FBS) containing 0.3 μM 3H-taurocholic acid and 25 μM cold taurocholic acid maintaining 0.2% final DMSO concentration). 50 μL of incubation mix containing test inhibitors was then added to the wells (in duplicate) and the plates were incubated for 20 minutes in a CO2 incubator at 37° C. After incubation, the reaction was stopped by keeping the plates on ice water mix for 2-3 minutes and then the incubation mix was aspirated completely from the wells. The wells were washed two times with 250 μL of chilled unlabelled 1 mM taurocholic acid dissolved in HEPES (Gibco 15630080)-buffered (10 mM) HBSS (Gibco 14175079) (pH 7.4). The plates were tapped against a paper towel after every wash to ensure maximum removal of blocking buffer.
100 μL of MicroScint-20 (PerkinElmer 6013621) was added to the wells and kept overnight at RT before reading the plates in TopCount NXT™ Microplate Scintillation and Luminescence Counter from PerkinElmer under 3H Test protocol (set at 120 seconds reading time per well, with normal plate orientation).
as §1, §2

One may read the IC50 as the point on the concentration scale where inhibition reaches its midpoint. With `CCCCC1(CC)CN(c2ccc(F)cc2)c2cc(OC)c(CSCC(=O)O)cc2S(=O)(=O)C1` (racemic) [Example 39, 2-(((3-butyl-3-ethyl-5-(4-fluorophenyl)-7-methoxy-1,1-dioxido-2,3,4,5-tetrahydro-1,5-benzothiazepin-8-yl)methyl)thio)acetic acid], the values for the IC50 at hIBAT and on hLBAT were 2.5 nM and above 3330 nM, respectively.
With `CCCCC1(C)CN(c2ccccc2)c2cc(OC)c(CSC(C)(C)C(=O)O)cc2S(=O)(=O)C1` (racemic) [Example 41, 2-(((3-butyl-7-methoxy-3-methyl-1,1-dioxido-5-phenyl-2,3,4,5-tetrahydro-1,5-benzothiazepin-8-yl)methyl)thio)-2-methylpropanoic acid], the IC50 on hIBAT is above 1110 nM; on hLBAT, 134 nM.
As to `CCCCC1(CC)CN(c2ccccc2)c2cc(OC)c(CSCC(=O)O)cc2S(=O)(=O)N1` (racemic) [Example 44, 2-(((3-butyl-3-ethyl-7-methoxy-1,1-dioxido-5-phenyl-2,3,4,5-tetrahydro-1,2,5-benzothiadiazepin-8-yl)methyl)thio)acetic acid], the IC50 on hIBAT is 5.2 nM; on hLBAT, above 1000 nM.
Regarding `CCCCC1(CC)CN(c2ccccc2)c2cc(S(C)(=O)=O)c(CSCC(=O)O)cc2S(=O)(=O)N1` (racemic) [Example 47, 2-(((3-butyl-3-ethyl-7-(methylsulfonyl)-1,1-dioxido-5-phenyl-2,3,4,5-tetrahydro-1,2,5-benzothiadiazepin-8-yl)methyl)thio)acetic acid], the values for the IC50 on hIBAT and on hLBAT were 14 nM and above 1000 nM, respectively.
Taken in the same sequence, the figures for `CCCCC1(CC)CN(c2ccccc2)c2cc(SC)c(CSCC(=O)O)cc2S(=O)(=O)C1` (single isomer, unassigned) [2, enantiomer 2] were 2.8 nM and 3150 nM.
`CCCCC1(C)CN(c2ccccc2)c2cc(SC)c(CSCC(=O)O)cc2S(=O)(=O)C1` (single isomer, unassigned) [5, enantiomer 2]: the IC50 came out at 44 nM on hIBAT and 4400 nM at hLBAT.
In the case of `CCCCC1(CC)CN(c2ccc(F)cc2)c2cc(SC)c(CSCC(=O)O)cc2S(=O)(=O)C1` (single isomer, unassigned) [7, enantiomer 2], the IC50 was determined as 2.8 nM at hIBAT and 4840 nM at hLBAT.
As to `CCCCC1(CC)CN(c2ccccc2)c2cc(SC)c(CSCC(=O)O)cc2S(=O)(=O)N1` (single isomer, unassigned) [10, enantiomer 1], the IC50 on hIBAT was 0.3 nM; on hLBAT, above 3330 nM.
For `CCCCC1CN(c2ccccc2)c2cc(SC)c(CSCC(=O)O)cc2S(=O)(=O)N1C` (single isomer, unassigned) [12, enantiomer 1], in that order: 115 nM and above 10000 nM.
For `CCCCC1CN(c2ccccc2)c2cc(SC)c(CSCC(=O)O)cc2S(=O)(=O)N1C` (single isomer, unassigned) [12, enantiomer 2], in that order: 116 nM and 34 nM.
For `CCCCC1(CC)CN(c2ccccc2)c2cc(OC)c(CSCC(=O)O)cc2S(=O)(=O)C1` (single isomer, unassigned) [14, enantiomer 1], the IC50 on hIBAT was 1.1 nM; at hLBAT it was above 1000 nM.
For `CCCCC1(CC)CN(c2ccccc2)c2cc(OC)c(CSCC(=O)O)cc2S(=O)(=O)C1` (single isomer, unassigned) [14, enantiomer 2], the IC50 on hIBAT was 64 nM; on hLBAT, above 1000 nM.
`CCCCC1(CC)CN(c2ccc(F)cc2)c2cc(SC)c(CSC(C)(C)C(=O)O)cc2S(=O)(=O)C1` (single isomer, unassigned) [16, enantiomer 1]: the IC50 came to 10 nM on hIBAT and 164 nM at hLBAT.
Regarding `CCCCC1(CC)CN(c2ccc(F)cc2)c2cc(SC)c(CSC(C)(C)C(=O)O)cc2S(=O)(=O)C1` (single isomer, unassigned) [16, enantiomer 2], the IC50 on hIBAT is 659 nM; at hLBAT it was 220 nM.
For `CCCCC1(C)CN(c2ccccc2)c2cc(SC)c(CSC(C)(C)C(=O)O)cc2S(=O)(=O)C1` (single isomer, unassigned) [19, enantiomer 1], in that order: 192 nM and 194 nM.
Regarding `CCCCC1(C)CN(c2ccccc2)c2cc(SC)c(CSC(C)(C)C(=O)O)cc2S(=O)(=O)C1` (single isomer, unassigned) [19, enantiomer 2], the results for the IC50 on hIBAT and on hLBAT were 1870 nM and 176 nM, respectively.
Take `CCCCC1(CC)CN(c2ccccc2)c2cc(SC)c(CSCC(=O)O)cc2S(=O)(=O)N1C` (single isomer, unassigned) [21, enantiomer 1]: the IC50 is above 243 nM at hIBAT and 3310 nM on hLBAT.
Consider `CCCCC1(CC)CN(c2ccccc2)c2cc(SC)c(CSCC(=O)O)cc2S(=O)(=O)N1C` (single isomer, unassigned) [21, enantiomer 2], for which the IC50 on hIBAT was above 554 nM; on hLBAT, 1900 nM.
For the molecule `CCCCC1(CC)CN(c2ccccc2)c2cc(OC)c(CSC(C)(C)C(=O)O)cc2S(=O)(=O)C1` (single isomer, unassigned) [26, enantiomer 1], the IC50 on hIBAT amounted to 195 nM; on hLBAT it was 104 nM.
For `CCCCC1(CC)CN(c2ccccc2)c2cc(OC)c(CSC(C)(C)C(=O)O)cc2S(=O)(=O)C1` (single isomer, unassigned) [26, enantiomer 2], in that order: 5110 nM and 245 nM.
`CCCCC1(C)CN(c2ccccc2)c2cc(OC)c(CSCC(=O)O)cc2S(=O)(=O)C1` (single isomer, unassigned) [28, enantiomer 1]: the values for the IC50 on hIBAT and at hLBAT were 7.7 nM and above 10000 nM, respectively.
Take `CCCCC1(C)CN(c2ccccc2)c2cc(OC)c(CSCC(=O)O)cc2S(=O)(=O)C1` (single isomer, unassigned) [28, enantiomer 2]: the IC50 on hIBAT is 532 nM; on hLBAT, above 10000 nM.
On to `CCCCC1CN(c2ccc(F)cc2)c2cc(OC)c(CSCC(=O)O)cc2S(=O)(=O)N1C` (single isomer, unassigned) [30, enantiomer 1], for which the IC50 at hIBAT and on hLBAT was above 10000 nM throughout.
